Measured values published in US8022051B2, “Composition for protection and improvement of skin, or reinforcing skin barrier function comprising phosphatidylserine” (Doosan Corporation, priority 2004, dated 2011).

Assays:
[1] = system: skin keratinocytes (HaCaT); experiment: Protection from ROS (hydrogen peroxide) in skin keratinocytes (MTT assay); format: cell-based; conditions: phosphatidylserine 25 μM, vitamin C 100 μM, vitamin E 100 μM, 24 hours; then 1 mM H2O2 about 1-1.5 hours; FIG. 8
Procedure: In order to measure an effect of protecting the skin from the ROS in the keratinocyte by the phosphatidylserine of the invention, a following experiment was performed.
First, the skin keratinocytes (HaCaT) were seeded to the 24-well plate in an amount of 5×10^4 cells/well. Next day, it was treated with 25 μM phosphatidylserine aqueous solution (Doosan Biotech, Korea) (phosphatidylserine-treated group), 100 μM vitamin C (ascorbic acid-treated group) and 100 μM vitamin E (a-tocopherol-treated group) as the positive control group and then cultured for 24 hours. Next day, it was treated with 1 mM hydrogen peroxide (H2O2) and then cultured for about 1˜1.5 hours. Then, a cell viability was examined with the MTT assay.

[2] = system: normal human keratinocytes; experiment: Differentiation promoting effect in skin keratinocytes (western blot of involucrin and transglutaminase); format: cell-based; conditions: phosphatidylserine 20 and 40 μM, calcium 1.2 mM, clofibrate 200 and 400 μM; 24 hours; FIG. 5
Procedure: In order to examine a differentiation promoting effect in the skin keratinocytes by the phosphatidylserine of the invention, a following experiment was performed. First, the normal human keratinocytes (a gift from Dong-guk University) cultured in the KSFM (Keratinocyte-SFM; Gibco BRL/Life Technologies, USA) were seeded to the 35 mm^2 cell culture dish in an amount of 1.5×10^5 cells/dish and then cultured for a day. Next day, the culture medium was removed and a new culture medium containing 20 and 40 μM of phosphatidylserine aqueous solution, 1.2 mM calcium aqueous solution and 200 and 400 μM of clofibrate (Sigma, USA) added thereto was added and cultured for 24 hours. Next day, in order to make sure of a differentiation of the keratinocyte, a morphology change of the cell was checked with a phase contrast microscope (Nikon, Japan) and a photograph was taken with a digital camera attached to the microscope. In addition, a western blot was performed to check the protein expression amount of involucrin and transglutaminase, which have been known as a differentiation-marker proteins of the keratinocyte peculiar to the keratin. 500 μl of a lysis buffer having 2% sodium dodecyl sulfate (SDS) added thereto wad added and the cells were collected with a cell scrapper, so that cell lysate only was obtained. […]

[3] = system: skin keratinocyte cell line (HaCaT); experiment: Protection of skin keratinocytes from ultraviolet injury (MTT assay); format: cell-based, human; conditions: 25 mJ/cm^2 UVB; phosphatidylserine 20 and 40 μM, WY-14643 200 μM; 24 hours; FIG. 4
skin = conditions: applied to the skin; Sheu et al., J Invest Dermatol 118, 94-101, 2002; cited from earlier work
[4] = system: skin keratinocyte cell line (HaCaT) and normal human keratinocytes; experiment: Reduction of inflammatory response induced by ultraviolet irradiation in skin keratinocytes (ELISA of TNF-a, IL-6, IL-1alpha); format: cell-based; conditions: 25 mJ/cm^2 UVB; phosphatidylserine 20 and 40 μM, WY-14643 200 μM; 24 hours; FIG. 3
Procedure: In order to examine an inflammatory response-reducing effect of the phosphatidylserine of the invention in the skin keratinocyte, which response results from the ultraviolet irradiation, a following experiment was performed in accordance with a method disclosed in the literature (Stefan et. al., The Journal of Investigate Dermatology, 117, pp 1430-1436, 2001).
First, the skin keratinocyte cell line (HaCaT, a gift from Yonsei univeritym, Korea) was seeded to a 35 mm^2 of cell culture dish in an amount of 3×10^5 cells/dish and then cultured for a day. Next day, the culture medium was removed and the cell was washed with 1× phosphate-buffered saline (PBS), 700 μl of 1×PBS was added to each of the dishes, it was irradiated 25 mJ/cm^2 UVB and then PBS was removed. […] Next day, the culture medium was collected and then amounts of TNF-a and IL-6 which have been known as inflammatory cytokines were measured with an enzyme-linked immunosorbent assay (ELISA) method. In addition, in order to check that there occurred a similar inflammatory response reducing effect also in the normal human skin keratinocyte, an experiment was performed in the above-mentioned manner using normal human keratinocytes (a gift from Dong-guk University) instead of the HaCaT cell line and then an amount of IL-1alpha secreted to the culture medium was measured with the ELISA.

[5] = system: TPA-induced ear inflammation in CD-1 mouse; experiment: Alleviation of skin damage (inflammatory response) due to TPA in mouse ear; format: in vivo; conditions: TPA 0.03%; applied 30 μl per cm^2 at 45 minutes and 4 hours after induction; phosphatidylserine 0.5%, clofibrate 1 mM, Wy14643 1 mM; FIG. 2
Procedure: In order to examine a skin damage (inflammatory response)-alleviating effect of the phosphatidylserine of the invention, which damage results from skin inflammation-inducing material, a following experiment was performed in accordance with a method used by Sheu et. al. (The Journal of Investigate Dermatology, 118, pp 94-101, 2002).
First, CD-1 mouse (male & female, 6-8 weeks, Charles River, US) was used as an experimental object. TPA (12-0-tetradecanoylphorbol-13-acetate) 0.03% (wt./vol.; in acetone) solution 10 μl, which was skin inflammation-inducing material, was treated to inner and outer parts of both ears of the experimental animal. The ear was thickened due to TPA and there occurred an inflammatory response. Then, clofibrate (1 mM) and Wy14643 (1 mM) as already-known positive control group, which are agonists of PPAR-a, and the 0.5% phosphatidylserine containing aqueous solution used as the Example 1 as an experimental material were applied to both ears in an amount of 30 μl per cm^2 at times of 45 minutes and 4 hours after the inflammation was induced. After that, the treated parts of the ears were subject to a biopsy, and the biopsy parts were fixed to 4% formaldehyde and then subject to Hematoxylene & Eosin (E&H) staining. The tissue slide stained with H&E was magnified to 100 folds to check the inflammation alleviation.

O=C1O[C@H]([C@@H](O)CO)C(O)=C1O [ascorbic acid, reference compound]
protection effect from reactive oxygen species (cell viability, MTT) [1]: exhibited the protection effect

[Ca+2] [calcium, reference compound]
protein expression of involucrin and transglutaminase [2]: caused the expressions of the two proteins to be increased

Cc1c(C)c2c(c(C)c1O)CC[C@@](C)(CCC[C@H](C)CCC[C@H](C)CCCC(C)C)O2 [a-tocopherol, reference compound]
protection effect from reactive oxygen species (cell viability, MTT) [1]: exhibited the protection effect

Cc1cccc(Nc2cc(Cl)nc(SCC(=O)O)n2)c1C [WY14643, reference compound]
protection of skin keratinocytes from ultraviolet injury (cell survival, MTT) [3]: protected the skin keratinocytes from the ultraviolet injury | inflammation due to the skin stimulating material (skin): decreased | inflammatory response increased due to the ultraviolet irradiation (TNF-a, IL-6, IL-1alpha amounts) [4]: considerably alleviated | inflammation alleviation (H&E stained ear tissue) [5]: inflammation was alleviated
